# From patent US20080009418A1, “Selective Inhibitors” (Alchemia LTD., priority 2004, published 2008)
# What was measured:
# Human melanocortin (MC5) = molecular target: T1, Human melanocortin (MC5) (Homo sapiens, UniProt P33032); test: Radioligand binding, human melanocortin MC5 membranes, FlashPlate, [125I]-NDP-αMSH; conditions: compound at 10 μM, [125I]-NDP-αMSH; for A5: inhibition of radioligand binding: FlashPlate
# T1 construct: purchased Perkin Elmer Biosignal
# Outline: (§1)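 Cloned human receptor membranes were coated onto FlashPlate wells and incubated with radioligand and compound (added from a 0.5 mM DMSO daughter plate) for 1 hour at room temperature in the dark. Scintillation counting gave percent inhibition, with DMSO defining total and reference ligand defining non-specific binding.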
# Human Melanocortin (MC4) = molecular target: T2, Human Melanocortin (MC4) (Homo sapiens, UniProt P32245); test: Radioligand binding, human melanocortin MC4 membranes, FlashPlate, [125I]-NDP-αMSH; conditions: compound at 10 μM, [125I]-NDP-αMSH; for A4: inhibition of radioligand binding: FlashPlate
# T2 construct: purchased Perkin Elmer Biosignal
# T2 sequence (P32245 whole entry): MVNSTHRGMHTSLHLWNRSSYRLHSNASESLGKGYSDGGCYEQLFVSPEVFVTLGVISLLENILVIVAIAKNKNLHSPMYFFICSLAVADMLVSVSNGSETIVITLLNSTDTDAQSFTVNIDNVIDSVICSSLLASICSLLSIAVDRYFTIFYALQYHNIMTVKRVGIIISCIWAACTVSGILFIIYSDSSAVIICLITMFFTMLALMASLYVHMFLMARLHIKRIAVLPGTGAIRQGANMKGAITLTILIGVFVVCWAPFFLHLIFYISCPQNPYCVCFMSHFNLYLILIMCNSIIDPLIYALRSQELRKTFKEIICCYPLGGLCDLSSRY
# Outline: as §1
# Human κ-Opioid (KOP) = molecular target: T3, Human κ-Opioid (KOP) (Homo sapiens, UniProt P41145); test: Radioligand binding, human κ-opioid (KOP) membranes, filtration, [3H]-Diprenorphine; conditions: compound at 10 μM, [3H]-Diprenorphine; for A2: inhibition of radioligand binding: filtration
# T3 construct: purchased Perkin Elmer Biosignal
# T3 sequence (P41145 whole entry): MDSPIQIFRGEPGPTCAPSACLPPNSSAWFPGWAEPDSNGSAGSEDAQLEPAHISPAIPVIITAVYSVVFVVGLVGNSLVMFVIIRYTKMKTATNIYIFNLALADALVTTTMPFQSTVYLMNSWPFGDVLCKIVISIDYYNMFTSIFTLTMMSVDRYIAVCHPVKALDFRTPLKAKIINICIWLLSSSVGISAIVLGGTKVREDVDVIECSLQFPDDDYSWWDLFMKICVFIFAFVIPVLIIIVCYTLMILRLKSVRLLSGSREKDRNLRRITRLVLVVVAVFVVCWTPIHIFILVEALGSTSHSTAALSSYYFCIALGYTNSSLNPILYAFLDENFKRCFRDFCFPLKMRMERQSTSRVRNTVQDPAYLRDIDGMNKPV
# Outline: (§2)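 Filtration binding on cloned human receptor membranes (1 Unit/well), [125I]-Substance P for NK1 and [3H]-Diprenorphine for KOP, 1 h at room temperature. Filters PEI-presoaked, washed with cold 50 mM Tris-HCl pH 7.4, counted by scintillation; percent inhibition calculated, reference ligand defining non-specific binding.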
# [1] = molecular target: T4, Human melanin-concentrating hormone (MCH1) (Homo sapiens, UniProt Q99705); test: Radioligand binding, human melanin-concentrating hormone MCH1 membranes, FlashPlate, [125I]-S36057; conditions: compound at 10 μM; for A6: inhibition of radioligand binding, human melanin-concentrating hormone (MCH1): [125I]-S36057; for A6: inhibition of radioligand binding: [125I]-S36057, FlashPlate
# T4 construct: purchased Perkin Elmer Biosignal
# T4 sequence (Q99705 whole entry): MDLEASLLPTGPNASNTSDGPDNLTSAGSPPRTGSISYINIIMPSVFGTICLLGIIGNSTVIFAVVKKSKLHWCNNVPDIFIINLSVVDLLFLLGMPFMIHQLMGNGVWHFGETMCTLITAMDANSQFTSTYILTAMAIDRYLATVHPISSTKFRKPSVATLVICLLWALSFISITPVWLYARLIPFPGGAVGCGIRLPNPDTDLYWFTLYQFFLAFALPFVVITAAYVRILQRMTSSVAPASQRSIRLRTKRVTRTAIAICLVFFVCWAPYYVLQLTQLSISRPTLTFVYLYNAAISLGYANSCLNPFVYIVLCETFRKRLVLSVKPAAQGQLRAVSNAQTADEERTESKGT
# Outline: as §1
# Human opioid (ORL1) = molecular target: T5, Human opioid (ORL1) (Homo sapiens, UniProt P41146); test: Radioligand binding, human opioid ORL1 membranes, FlashPlate, [125I]-Nociceptin; conditions: compound at 10 μM, [125I]-Nociceptin; for A10: inhibition of radioligand binding: FlashPlate
# T5 construct: purchased Perkin Elmer Biosignal
# T5 sequence (P41146 whole entry): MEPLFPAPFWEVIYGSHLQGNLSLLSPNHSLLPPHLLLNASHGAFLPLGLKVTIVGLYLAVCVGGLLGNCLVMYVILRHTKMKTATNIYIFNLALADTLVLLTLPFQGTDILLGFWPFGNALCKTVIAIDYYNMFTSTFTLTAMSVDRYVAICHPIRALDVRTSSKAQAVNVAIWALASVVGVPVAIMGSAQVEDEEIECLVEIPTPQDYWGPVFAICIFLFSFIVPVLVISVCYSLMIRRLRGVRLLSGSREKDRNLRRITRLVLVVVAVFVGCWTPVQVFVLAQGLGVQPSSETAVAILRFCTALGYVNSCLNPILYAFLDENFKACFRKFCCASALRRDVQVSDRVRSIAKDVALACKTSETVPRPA
# Outline: as §1
# Human μ-opioid (MOP) = molecular target: T6, Human μ-opioid (MOP) (Homo sapiens, UniProt P35372); test: Radioligand binding, human μ-opioid (MOP) membranes, FlashPlate, [3H]-Naloxone; conditions: compound at 10 μM, [3H]-Naloxone; for A7: inhibition of radioligand binding: FlashPlate
# T6 construct: purchased Perkin Elmer Biosignal
# T6 sequence (P35372 whole entry): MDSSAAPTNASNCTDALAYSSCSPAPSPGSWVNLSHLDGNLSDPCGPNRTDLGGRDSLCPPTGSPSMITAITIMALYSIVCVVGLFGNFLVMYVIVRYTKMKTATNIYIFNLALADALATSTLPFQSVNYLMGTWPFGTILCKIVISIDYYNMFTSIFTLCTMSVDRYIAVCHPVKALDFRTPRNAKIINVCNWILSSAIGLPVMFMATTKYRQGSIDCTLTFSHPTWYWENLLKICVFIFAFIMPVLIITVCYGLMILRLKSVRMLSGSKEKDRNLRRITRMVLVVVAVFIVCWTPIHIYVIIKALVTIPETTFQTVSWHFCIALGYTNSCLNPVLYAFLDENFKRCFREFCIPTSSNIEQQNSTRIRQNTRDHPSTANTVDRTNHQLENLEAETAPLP
# Outline: as §1
# Human Melanocortin (MC3) = molecular target: T7, Human Melanocortin (MC3) (Homo sapiens, UniProt P41968); test: Radioligand binding, human melanocortin MC3 membranes, FlashPlate, [125I]-NDP-αMSH; conditions: compound at 10 μM, [125I]-NDP-αMSH; for A3: inhibition of radioligand binding: FlashPlate
# T7 construct: purchased Perkin Elmer Biosignal
# T7 sequence (P41968 whole entry): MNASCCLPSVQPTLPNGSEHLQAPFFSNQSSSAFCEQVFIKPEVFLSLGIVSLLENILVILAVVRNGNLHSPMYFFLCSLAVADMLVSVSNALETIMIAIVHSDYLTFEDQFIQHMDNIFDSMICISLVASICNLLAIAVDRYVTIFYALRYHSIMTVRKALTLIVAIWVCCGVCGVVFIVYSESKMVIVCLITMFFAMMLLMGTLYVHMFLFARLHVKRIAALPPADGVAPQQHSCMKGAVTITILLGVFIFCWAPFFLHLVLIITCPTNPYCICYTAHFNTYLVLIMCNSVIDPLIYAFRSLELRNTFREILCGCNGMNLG
# Outline: as §1
# Human δ-opioid (DOP) = molecular target: T8, Human δ-opioid (DOP) (Homo sapiens, UniProt P41143); test: Radioligand binding, human δ-opioid (DOP) membranes, FlashPlate, [3H]-Bremazocine; conditions: compound at 10 μM, [3H]-Bremazocine; for A1: inhibition of radioligand binding: FlashPlate
# T8 construct: purchased Perkin Elmer Biosignal
# T8 sequence (P41143 whole entry): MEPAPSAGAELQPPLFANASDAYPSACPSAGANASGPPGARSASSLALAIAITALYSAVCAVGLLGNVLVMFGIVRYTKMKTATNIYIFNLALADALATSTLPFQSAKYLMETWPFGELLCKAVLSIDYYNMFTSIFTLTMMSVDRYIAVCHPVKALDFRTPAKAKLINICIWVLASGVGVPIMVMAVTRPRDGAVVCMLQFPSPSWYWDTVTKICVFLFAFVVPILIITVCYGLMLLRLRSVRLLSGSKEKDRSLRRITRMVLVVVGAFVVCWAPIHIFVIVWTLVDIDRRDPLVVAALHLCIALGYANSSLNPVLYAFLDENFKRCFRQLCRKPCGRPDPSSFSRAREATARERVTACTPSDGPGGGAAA
# Outline: as §1
# Human neurokinin (NK1) = molecular target: T9, Human neurokinin (NK1) (Homo sapiens, UniProt P25103); test: Radioligand binding, human neurokinin NK1 membranes, filtration, [125I]-Substance P; conditions: compound at 10 μM, [125I]-Substance P; for A8: inhibition of radioligand binding: filtration
# T9 construct: purchased Perkin Elmer Biosignal
# T9 sequence (P25103 whole entry): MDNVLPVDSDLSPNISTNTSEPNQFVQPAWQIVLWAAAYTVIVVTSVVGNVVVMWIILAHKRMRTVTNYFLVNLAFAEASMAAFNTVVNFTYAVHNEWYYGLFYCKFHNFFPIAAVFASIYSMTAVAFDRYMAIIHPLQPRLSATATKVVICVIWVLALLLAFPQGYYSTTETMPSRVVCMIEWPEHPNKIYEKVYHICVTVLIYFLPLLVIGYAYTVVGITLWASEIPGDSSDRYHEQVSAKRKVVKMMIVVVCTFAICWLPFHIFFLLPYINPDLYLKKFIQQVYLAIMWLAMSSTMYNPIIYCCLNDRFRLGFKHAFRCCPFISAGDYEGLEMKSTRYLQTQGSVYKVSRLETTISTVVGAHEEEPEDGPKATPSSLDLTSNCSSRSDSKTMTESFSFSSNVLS
# Outline: as §2
# [2] = molecular target: T10, Human neuropeptide Y (NPY-Y1) (Homo sapiens, UniProt P25929); test: Radioligand binding, human neuropeptide Y NPY-Y1 membranes, FlashPlate, [125I]-PYY; conditions: compound at 10 μM, [125I]-PYY; for A9: inhibition of radioligand binding: FlashPlate
# T10 construct: purchased Perkin Elmer Biosignal
# T10 sequence (P25929 1-384): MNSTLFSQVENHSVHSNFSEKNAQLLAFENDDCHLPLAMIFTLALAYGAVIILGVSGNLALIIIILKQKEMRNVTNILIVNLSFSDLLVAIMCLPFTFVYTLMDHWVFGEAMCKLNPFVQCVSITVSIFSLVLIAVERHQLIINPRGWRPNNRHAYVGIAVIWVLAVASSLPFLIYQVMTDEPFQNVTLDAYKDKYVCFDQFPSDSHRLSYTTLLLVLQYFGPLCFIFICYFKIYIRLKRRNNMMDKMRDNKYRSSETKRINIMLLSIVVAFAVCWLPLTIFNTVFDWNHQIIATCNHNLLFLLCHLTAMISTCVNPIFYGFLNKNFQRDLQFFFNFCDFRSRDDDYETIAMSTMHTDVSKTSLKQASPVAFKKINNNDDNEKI
# Outline: as §1
# Mouse urotensin (mUR2) = molecular target: T11, Mouse urotensin (mUR2) (Mus musculus, UniProt Q8VIH9); test: Radioligand binding, mouse urotensin mUR2 membranes, FlashPlate, [125I]-Urotensin II; conditions: compound at 10 μM, [125I]-Urotensin II; for A11: inhibition of radioligand binding: FlashPlate
# T11 construct: purchased Perkin Elmer Biosignal
# T11 sequence (Q8VIH9 1-385): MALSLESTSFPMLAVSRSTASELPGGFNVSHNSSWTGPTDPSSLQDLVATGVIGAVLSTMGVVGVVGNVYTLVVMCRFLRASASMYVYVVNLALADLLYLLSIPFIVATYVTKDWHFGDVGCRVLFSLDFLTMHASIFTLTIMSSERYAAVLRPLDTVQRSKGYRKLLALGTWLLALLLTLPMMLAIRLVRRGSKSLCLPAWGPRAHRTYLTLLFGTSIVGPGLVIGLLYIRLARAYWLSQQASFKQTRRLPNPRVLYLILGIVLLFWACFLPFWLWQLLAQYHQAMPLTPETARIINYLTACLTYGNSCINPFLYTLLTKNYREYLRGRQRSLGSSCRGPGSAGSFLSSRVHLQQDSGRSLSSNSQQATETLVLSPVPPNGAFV
# Outline: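 Cloned mouse urotensin (mUR2) receptor membranes from Perkin Elmer Biosignal were immobilized in FlashPlate microplates using a proprietary coating. Each well got 19.5 μl buffer, then 0.5 μl of DMSO, reference ligand, or compound. Adding 5 μl of [125I]-Urotensin II, diluted to 5× final concentration in binding buffer, started binding. Plates were sealed with TopSeal-A and incubated 1 hour at room temperature in the dark. Wells were counted for 30 seconds each on a TopCount after a 60-second delay, and percentage inhibition was calculated.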
# T1 sequence (P33032 whole entry): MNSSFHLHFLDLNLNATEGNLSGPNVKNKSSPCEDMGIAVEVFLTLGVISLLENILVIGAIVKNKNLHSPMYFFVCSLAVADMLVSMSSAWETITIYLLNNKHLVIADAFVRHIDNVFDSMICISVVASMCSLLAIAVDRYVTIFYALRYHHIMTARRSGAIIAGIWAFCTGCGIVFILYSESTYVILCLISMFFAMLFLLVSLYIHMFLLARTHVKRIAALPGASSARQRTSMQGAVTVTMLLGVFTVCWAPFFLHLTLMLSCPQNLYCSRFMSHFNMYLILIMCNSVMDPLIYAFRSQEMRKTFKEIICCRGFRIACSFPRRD
SMILES,"A5: inhibition of radioligand binding, human melanocortin (MC5) (Human melanocortin (MC5))","A4: inhibition of radioligand binding, human melanocortin (MC4) (Human Melanocortin (MC4))","A2: inhibition of radioligand binding, human κ-opioid (KOP) (Human κ-Opioid (KOP))","A10: inhibition of radioligand binding, human opioid (ORL1) (Human opioid (ORL1))","A1: inhibition of radioligand binding, human δ-opioid (DOP) (Human δ-opioid (DOP))","A8: inhibition of radioligand binding, human neurokinin (NK1) (Human neurokinin (NK1))","A9: inhibition of radioligand binding, human neuropeptide Y (NPY-Y1) [2]","A11: inhibition of radioligand binding, mouse urotensin (mUR2) (Mouse urotensin (mUR2))",A5: inhibition of radioligand binding (Human melanocortin (MC5)),A4: inhibition of radioligand binding (Human Melanocortin (MC4)),A2: inhibition of radioligand binding (Human κ-Opioid (KOP)),A6: inhibition of radioligand binding [1],A10: inhibition of radioligand binding (Human opioid (ORL1)),A7: inhibition of radioligand binding (Human μ-opioid (MOP)),A3: inhibition of radioligand binding (Human Melanocortin (MC3)),A1: inhibition of radioligand binding (Human δ-opioid (DOP)),A8: inhibition of radioligand binding (Human neurokinin (NK1)),A9: inhibition of radioligand binding [2],A11: inhibition of radioligand binding (Mouse urotensin (mUR2)),also measured
CSC1OC(COCc2cccc(N)c2)C(O)C(OCc2ccccc2)C1NC(=O)c1c[nH]c2ccccc12 (stereo not shown) [compound 331],− (“−” indicates less than 50% inhibition at 10 μM),− (“−” indicates less than 50% inhibition at 10 μM),− (“−” indicates less than 50% inhibition at 10 μM),− (“−” indicates less than 50% inhibition at 10 μM),− (“−” indicates less than 50% inhibition at 10 μM),+ (“+” indicates greater than 50% inhibition at 10 μM),− (“−” indicates less than 50% inhibition at 10 μM),− (“−” indicates less than 50% inhibition at 10 μM),–,–,–,–,–,–,–,–,–,–,–,"A6: inhibition of radioligand binding, human melanin-concentrating hormone (MCH1) [1]: − (“−” indicates less than 50% inhibition at 10 μM); A7: inhibition of radioligand binding, human μ-opioid (MOP) (Human μ-opioid (MOP)): − (“−” indicates less than 50% inhibition at 10 μM); A3: inhibition of radioligand binding, human melanocortin (MC3) (Human Melanocortin (MC3)): − (“−” indicates less than 50% inhibition at 10 μM)"
COCC1OC(OCc2ccc(Cl)cc2)C(NC(=O)CCCNC(=N)N)C(OCc2ccc3ccccc3c2)C1O (stereo not shown) [compound 213],–,–,–,–,–,–,–,–,+ (“+” indicates greater than 50% inhibition at 10 μM),+ (“+” indicates greater than 50% inhibition at 10 μM),+ (“+” indicates greater than 50% inhibition at 10 μM),+ (“+” indicates greater than 50% inhibition at 10 μM),+ (“+” indicates greater than 50% inhibition at 10 μM),− (“−” indicates less than 50% inhibition at 10 μM),− (“−” indicates less than 50% inhibition at 10 μM),− (“−” indicates less than 50% inhibition at 10 μM),+ (“+” indicates greater than 50% inhibition at 10 μM),− (“−” indicates less than 50% inhibition at 10 μM),− (“−” indicates less than 50% inhibition at 10 μM),–
COCC1OC(OCc2ccc3ccccc3c2)C(NC(=O)CCCN)C(OCc2ccc(Cl)cc2)C1O (stereo not shown) [compound 239],–,–,–,–,–,–,–,–,+ (“+” indicates greater than 50% inhibition at 10 μM),− (“−” indicates less than 50% inhibition at 10 μM),− (“−” indicates less than 50% inhibition at 10 μM),− (“−” indicates less than 50% inhibition at 10 μM),− (“−” indicates less than 50% inhibition at 10 μM),− (“−” indicates less than 50% inhibition at 10 μM),− (“−” indicates less than 50% inhibition at 10 μM),− (“−” indicates less than 50% inhibition at 10 μM),+ (“+” indicates greater than 50% inhibition at 10 μM),− (“−” indicates less than 50% inhibition at 10 μM),− (“−” indicates less than 50% inhibition at 10 μM),–
"NCCCC(=O)NC1C(OCc2ccc(Cl)cc2)OC(COCc2ccc3ccccc3c2)C(O)C1OCc1ccccc1 (single isomer, unassigned) [compound 502]",+ (“+” indicates greater than 50% inhibition at 10 μM),+ (“+” indicates greater than 50% inhibition at 10 μM),− (“−” indicates less than 50% inhibition at 10 μM),+ (“+” indicates greater than 50% inhibition at 10 μM),− (“−” indicates less than 50% inhibition at 10 μM),+ (“+” indicates greater than 50% inhibition at 10 μM),− (“−” indicates less than 50% inhibition at 10 μM),− (“−” indicates less than 50% inhibition at 10 μM),–,–,–,–,–,–,–,–,–,–,–,"A6: inhibition of radioligand binding, human melanin-concentrating hormone (MCH1) ([1]; 10 µM): + (“+” indicates greater than 50% inhibition at 10 μM); A7: inhibition of radioligand binding, human μ-opioid (MOP) (Human μ-opioid (MOP); 10 µM): + (“+” indicates greater than 50% inhibition at 10 μM); A3: inhibition of radioligand binding, human melanocortin (MC3) (Human Melanocortin (MC3); 10 µM): − (“−” indicates less than 50% inhibition at 10 μM)"
COCC1OC(OCc2ccc3ccccc3c2)C(NC(=O)CCCNC(=N)N)C(OCc2ccccc2)C1O (stereo not shown) [compound 234],–,–,–,–,–,–,–,–,− (“−” indicates less than 50% inhibition at 10 μM),− (“−” indicates less than 50% inhibition at 10 μM),− (“−” indicates less than 50% inhibition at 10 μM),− (“−” indicates less than 50% inhibition at 10 μM),− (“−” indicates less than 50% inhibition at 10 μM),− (“−” indicates less than 50% inhibition at 10 μM),− (“−” indicates less than 50% inhibition at 10 μM),− (“−” indicates less than 50% inhibition at 10 μM),+ (“+” indicates greater than 50% inhibition at 10 μM),− (“−” indicates less than 50% inhibition at 10 μM),− (“−” indicates less than 50% inhibition at 10 μM),–
